From patent US20240216381A1, “Px-cholorogenic Acid Comps” (PX ING, LLC, priority 2022, published 2024)

Legend:
brain biomarkers [1] = assay: Brain biomarkers in rats of the Morris Water Maze example; format: in vivo, Swiss Albino Wistar rats; design: Achetylcholine, Improvement over P-Control / Dopamine, Improvement over P-Control / Glutathione, Improvement over P-Control: concentration or dose not given beside the values; settings: for Achetylcholine, brain biomarker / Dopamine, brain biomarker / Glutathione, brain biomarker: oral ten days, Scopolamine 1 mg/kg; for Achetylcholine, Improvement over P-Control / Dopamine, Improvement over P-Control / Glutathione, Improvement over P-Control: vs Pathological Control (Scopolamine)
Description: (§1) The rats were randomized into nine groups containing eight rats in each group. […] The rats were treated with test substances daily for ten consecutive days.
(§2) On the tenth day test, test substances were administered orally thirty minutes before a 1 mg/kg body weight Scopolamine injection to induce amnesia in rats to all groups except control group. Administration of the Scopolamine injections were done via intraperitoneal injection. This was followed by behavioral test using Morris Water Maze apparatus to measure the long-term memory enhancing activity.
(§3) Several brain biomarkers were also measured in the rats.

[2] = tested on: Scopolamine induced amnesia in rats; assay: Cognitive enhancing effect, Elevated Plus Maze, Scopolamine induced amnesia in rats; format: in vivo, Swiss Albino Wistar rats; settings: for rat escape latency, Elevated Plus Maze: oral daily for ten days, day 10, 30 min before 1 mg/kg Scopolamine i.p., 50 mg HED PX or 1-MX, 25 mg HED CA; for rat escape latency, Elevated Plus Maze, Improvement over P-Control: vs Pathological Control (Scopolamine)
Description: (§4) The example was to evaluate the effect of the test substances on behavioral activity/memory enhancing activity in experimental rats.
as §1
as §2, with “Elevated Plus” for “Morris Water”

brain biomarkers [3] = assay: Brain biomarkers in rats of the Elevated Plus Maze example; format: in vivo, Swiss Albino Wistar rats; design: Achetylcholine, Improvement over P-Control / Dopamine, Improvement over P-Control / Glutathione, Improvement over P-Control / Catalse, Improvement over P-Control / BDNF, Improvement over P-Control / Serotonin, Improvement over P-Control / Cortisol, Improvement over P-Control: concentration or dose not given beside the values; settings: for Achetylcholine, brain biomarker / BDNF, brain biomarker / Catalse, brain biomarker / Cortisol, brain biomarker / Dopamine, brain biomarker / Glutathione, brain biomarker / Serotonin, brain biomarker: oral ten days, Scopolamine 1 mg/kg; for Achetylcholine, Improvement over P-Control / BDNF, Improvement over P-Control / Catalse, Improvement over P-Control / Cortisol, Improvement over P-Control / Dopamine, Improvement over P-Control / Glutathione, Improvement over P-Control / Serotonin, Improvement over P-Control: vs Pathological Control (Scopolamine)
Description: as §1
as §2, with “Elevated Plus” for “Morris Water”
as §3

[4] = tested on: Pentobarbital Sodium induced sleep activity in experimental mice; assay: Pentobarbital Sodium induced sleep activity in mice; format: in vivo, Swiss Albino Mice; settings: 50 mg HED PX or 1-MX, 25 mg HED CA; for Duration of sleep / Onset time of sleep: test substance intraperitoneal 30 min before 40 mg/kg Pentobarbital sodium; for Duration of sleep, Improvement over P-Control / Onset time of sleep, Improvement over P-Control: vs Pathological Control
Description: The present example was conducted to evaluate the efficacy of test substances on Pentobarbital Sodium induced sleep activity in experimental mice.
The mice were randomized into nine groups containing eight mice in each group. […] The dose information can be found below in Table 2.
On the day of experiment, mice from different groups were treated with the control and test substances respectively. After thirty minutes, all groups of mice, except for the Normal Control group were, administered with 40 mg/kg body doses of Pentobarbital sodium to induce sleep. Administration of the test substances was done via intraperitoneal injection. The onset time of sleep was recorded for all the mice. After induction of sleep, mice were placed in the inverted position and when sedation was over, time point where the mice return to its normal posture was noted. The time interval between dosing and start of sleep was recorded as latency time.

[5] = tested on: Scopolamine induced amnesia in rats; assay: Cognitive enhancing effect, Morris Water Maze, Scopolamine induced amnesia in rats; format: in vivo, Swiss Albino Wistar rats; settings: for rat escape latency, Morris Water Maze: oral daily for ten days, day 10, 30 min before 1 mg/kg Scopolamine i.p., 50 mg HED PX or 1-MX, 25 mg HED CA; for rat escape latency, Morris Water Maze, Improvement over P-Control: vs Pathological Control (Scopolamine)
Description: as §4, §1, §2

Structure (SMILES)	Achetylcholine, brain biomarker (brain biomarkers [1]) [U/ml]	Dopamine, brain biomarker (brain biomarkers [1]) [ng/L]	Glutathione, brain biomarker (brain biomarkers [1]) [µg/mL]	Achetylcholine, Improvement over P-Control (brain biomarkers [1]) [%]	Dopamine, Improvement over P-Control (brain biomarkers [1]) [%]	Glutathione, Improvement over P-Control (brain biomarkers [1]) [%]	rat escape latency, Elevated Plus Maze [2] [s]	rat escape latency, Elevated Plus Maze, Improvement over P-Control [2] [%]	Achetylcholine, brain biomarker (brain biomarkers [3]) [U/ml]	BDNF, brain biomarker (brain biomarkers [3]) [pg/mL]	Catalse, brain biomarker (brain biomarkers [3]) [U/mL]	Cortisol, brain biomarker (brain biomarkers [3]) [ng/mL]	Dopamine, brain biomarker (brain biomarkers [3]) [ng/L]	Glutathione, brain biomarker (brain biomarkers [3]) [µg/mL]	Serotonin, brain biomarker (brain biomarkers [3]) [ng/mL]	Achetylcholine, Improvement over P-Control (brain biomarkers [3]) [%]	BDNF, Improvement over P-Control (brain biomarkers [3]) [%]	Catalse, Improvement over P-Control (brain biomarkers [3]) [%]	Cortisol, Improvement over P-Control (brain biomarkers [3]) [%]	Dopamine, Improvement over P-Control (brain biomarkers [3]) [%]	also measured
Cn1c(=O)[nH]c2nc[nH]c2c1=O [1-Methylxanthine, 1-methylxanthine]	30.87	13.66	16.06	53	33	34	33.89	49	28.97	17.29	155.96	79.4	14.51	17.94	41.63	34	31	29	−12	25	Glutathione, Improvement over P-Control (brain biomarkers [3]): 32%; Serotonin, Improvement over P-Control (brain biomarkers [3]): −12%; Duration of sleep [4]: 57.75 min; Onset time of sleep [4]: 42.25 min; Duration of sleep, Improvement over P-Control [4]: 107%; Onset time of sleep, Improvement over P-Control [4]: −16%; rat escape latency, Morris Water Maze [5]: 32.43 s; rat escape latency, Morris Water Maze, Improvement over P-Control [5]: 51%
O=C(/C=C/c1ccc(O)c(O)c1)O[C@@H]1C[C@](O)(C(=O)O)C[C@@H](O)[C@H]1O [Chlorogenic acid]	33.03	14.74	16.85	63	43	41	30	68	33.17	18.05	161.91	68.51	15.58	19.89	38.43	54	37	34	−24	34	Glutathione, Improvement over P-Control (brain biomarkers [3]): 46%; Serotonin, Improvement over P-Control (brain biomarkers [3]): −19%; Duration of sleep [4]: 74.88 min; Onset time of sleep [4]: 40.5 min; Duration of sleep, Improvement over P-Control [4]: 169%; Onset time of sleep, Improvement over P-Control [4]: −20%; rat escape latency, Morris Water Maze [5]: 28.54 s; rat escape latency, Morris Water Maze, Improvement over P-Control [5]: 72%
Cn1c(=O)[nH]c2ncn(C)c2c1=O [Paraxanthine]	34.16	14.21	17.47	69	38	46	36.66	38	32.04	17.72	159.83	73.99	15.06	19.57	38.03	49	34	32	−18	30	Glutathione, Improvement over P-Control (brain biomarkers [3]): 44%; Serotonin, Improvement over P-Control (brain biomarkers [3]): −20%; Duration of sleep [4]: 66.13 min; Onset time of sleep [4]: 41.5 min; Duration of sleep, Improvement over P-Control [4]: 137%; Onset time of sleep, Improvement over P-Control [4]: −18%; rat escape latency, Morris Water Maze [5]: 30.46 s; rat escape latency, Morris Water Maze, Improvement over P-Control [5]: 61%
